According to PubChem BioAssay AID2060613 (Molecular Pharmacology Branch, DTP, NCI, 2025):

System: 233499-124-R-J3-PDC complex spheroid viability
Experiment: Anticancer human tumor 233499-124-R-J3-PDC patient-derived colon adenocarcinoma cell line growth inhibition [CLK]
Details: for IC50: curve of first compound; for viability, T/C: stronger effect = lower value
Procedure, shortened: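 Patient-derived tumor cells grown as complex spheroids with HUVEC endothelial cells and mesenchymal stem cells, treated with drug combinations. Concentrations descend in half-log steps from near clinical Cmax, or from 10 microM if Cmax unknown.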

[1] = second compound 0.0316 µM, first compound 0.0316 µM
[2] = second compound 0.0316 µM, first compound 0.1 µM
[3] = second compound 0.0316 µM, first compound 0.316 µM
[4] = second compound 0.0316 µM, first compound 1 µM
[5] = second compound 0.0316 µM, first compound 3.16 µM
[6] = second compound 0.0316 µM, first compound 10 µM
[7] = second compound 0.1 µM, first compound 0.0316 µM
[8] = second compound 0.1 µM, first compound 0.1 µM
[9] = second compound 0.1 µM, first compound 0.316 µM
[10] = second compound 0.1 µM, first compound 1 µM
[11] = second compound 0.1 µM, first compound 3.16 µM
[12] = second compound 0.1 µM, first compound 10 µM
[13] = second compound 0.316 µM, first compound 0.0316 µM
[14] = second compound 0.316 µM, first compound 0.1 µM
[15] = second compound 0.316 µM, first compound 0.316 µM
[16] = second compound 0.316 µM, first compound 1 µM
[17] = second compound 0.316 µM, first compound 3.16 µM
[18] = second compound 0.316 µM, first compound 10 µM
[19] = second compound 1 µM, first compound 0.0316 µM
[20] = second compound 1 µM, first compound 0.1 µM
[21] = second compound 1 µM, first compound 0.316 µM
[22] = second compound 1 µM, first compound 1 µM
[23] = second compound 1 µM, first compound 3.16 µM
[24] = second compound 1 µM, first compound 10 µM
[25] = second compound 3.16 µM, first compound 0.0316 µM
[26] = second compound 3.16 µM, first compound 0.1 µM
[27] = second compound 3.16 µM, first compound 0.316 µM
[28] = second compound 3.16 µM, first compound 1 µM
[29] = second compound 3.16 µM, first compound 3.16 µM
[30] = second compound 3.16 µM, first compound 10 µM
[31] = second compound 10 µM, first compound 0.0316 µM
[32] = second compound 10 µM, first compound 0.1 µM
[33] = second compound 10 µM, first compound 0.316 µM
[34] = second compound 10 µM, first compound 1 µM
[35] = second compound 10 µM, first compound 3.16 µM
[36] = second compound 10 µM, first compound 10 µM
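Also: spheroids exposed to the drug combinations for seven days.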
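For viability, T/C in this document: percent viability relative to DMSO vehicle control wells taken as 100%.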

`CC(C)CC(NC(=O)C(Cc1ccccc1)NC(=O)c1cnccn1)B(O)O` (stereo unspecified) + CNC(=O)c1ccc(Nc2nc(OC3CCCC3)c3c(-c4ccc5nc(C)oc5c4)c[nH]c3n2)c(OC)c1 was tested, and the IC50 (second compound 0.0316 µM) was 0.00539 µM, the IC50 (second compound 0.1 µM) was 0.00471 µM and the IC50 (second compound 0.316 µM) was 0.00227 µM. It also gave an IC50 (second compound 1 µM) of 0.00207 µM, an IC50 (second compound 3.16 µM) of 0.00151 µM and an IC50 (second compound 10 µM) of 0.00197 µM. For the same molecule, the viability, T/C (second compound 0.0316 µM, first compound 0.000949 µM) was 96.3%, the viability, T/C (second compound 0.0316 µM, first compound 0.003 µM) was 106% and the viability, T/C (second compound 0.0316 µM, first compound 0.00949 µM) was 0.33%. The viability, T/C (second compound 0.0316 µM, first compound 0.03 µM) was 0.21%, the viability, T/C (second compound 0.0316 µM, first compound 0.0949 µM) was 0.19% and the viability, T/C (second compound 0.0316 µM, first compound 0.3 µM) was 0.17%. It also gave a viability, T/C (second compound 0.1 µM, first compound 0.000949 µM) of 81.5%, a viability, T/C (second compound 0.1 µM, first compound 0.003 µM) of 82.5% and a viability, T/C (second compound 0.1 µM, first compound 0.00949 µM) of 0.57%. The viability, T/C (second compound 0.1 µM, first compound 0.03 µM) was 0.17%, the viability, T/C (second compound 0.1 µM, first compound 0.0949 µM) was 0.16% and the viability, T/C (second compound 0.1 µM, first compound 0.3 µM) was 0.16%. For the same molecule, the viability, T/C (second compound 0.316 µM, first compound 0.000949 µM) was 69.5%, the viability, T/C (second compound 0.316 µM, first compound 0.003 µM) was 43.7% and the viability, T/C (second compound 0.316 µM, first compound 0.00949 µM) was 0.19%. It also gave a viability, T/C (second compound 0.316 µM, first compound 0.03 µM) of 0.16%, a viability, T/C (second compound 0.316 µM, first compound 0.0949 µM) of 0.14% and a viability, T/C (second compound 0.316 µM, first compound 0.3 µM) of 0.54%. The viability, T/C (second compound 1 µM, first compound 0.000949 µM) was 92.2%, the viability, T/C (second compound 1 µM, first compound 0.003 µM) was 30.1% and the viability, T/C (second compound 1 µM, first compound 0.00949 µM) was 0.18%. It also gave a viability, T/C (second compound 1 µM, first compound 0.03 µM) of 0.15%, a viability, T/C (second compound 1 µM, first compound 0.0949 µM) of 0.15% and a viability, T/C (second compound 1 µM, first compound 0.3 µM) of 0.15%. The viability, T/C (second compound 3.16 µM, first compound 0.000949 µM) was 71.7%, the viability, T/C (second compound 3.16 µM, first compound 0.003 µM) was 18.4% and the viability, T/C (second compound 3.16 µM, first compound 0.00949 µM) was 0.16%. The viability, T/C (second compound 3.16 µM, first compound 0.03 µM) was 0.16%, the viability, T/C (second compound 3.16 µM, first compound 0.0949 µM) was 0.16% and the viability, T/C (second compound 3.16 µM, first compound 0.3 µM) was 0.7%. For the same molecule, the viability, T/C (second compound 10 µM, first compound 0.000949 µM) was 77%, the viability, T/C (second compound 10 µM, first compound 0.003 µM) was 34.5% and the viability, T/C (second compound 10 µM, first compound 0.00949 µM) was 0.2%. The viability, T/C (second compound 10 µM, first compound 0.03 µM) was 0.17%, the viability, T/C (second compound 10 µM, first compound 0.0949 µM) was 0.2% and the viability, T/C (second compound 10 µM, first compound 0.3 µM) was 0.66%.

In the case of `CC1(C)CCC(CN2CCN(c3ccc(C(=O)NS(=O)(=O)c4ccc(NCC5CCOCC5)c([N+](=O)[O-])c4)c(Oc4cnc5[nH]ccc5c4)c3)CC2)=C(c2ccc(Cl)cc2)C1` + CNC(=O)c1ccc(Nc2nc(OC3CCCC3)c3c(-c4ccc5nc(C)oc5c4)c[nH]c3n2)c(OC)c1, the IC50 (second compound 0.0316 µM) is reported as 6.79 µM, the IC50 (second compound 0.1 µM) is reported as 3.35 µM and the IC50 (second compound 0.316 µM) is reported as 3.14 µM. It also gave an IC50 (second compound 1 µM) of 4.67 µM, an IC50 (second compound 3.16 µM) of 2.87 µM and an IC50 (second compound 10 µM) of 4.47 µM. The viability, T/C [1] was 79.5%, the viability, T/C [2] was 96.9% and the viability, T/C [3] was 94.3%. It also gave a viability, T/C [4] of 106%, a viability, T/C [5] of 96.5% and a viability, T/C [6] of 27.2%. It also gave a viability, T/C [7] of 68.9%, a viability, T/C [8] of 70.2% and a viability, T/C [9] of 85%. For the same molecule, the viability, T/C [10] was 76.2%, the viability, T/C [11] was 51.6% and the viability, T/C [12] was 20.8%. It also gave a viability, T/C [13] of 76.4%, a viability, T/C [14] of 79.6% and a viability, T/C [15] of 81.3%. For the same molecule, the viability, T/C [16] was 76.8%, the viability, T/C [17] was 49.9% and the viability, T/C [18] was 25.1%. It also gave a viability, T/C [19] of 74.3%, a viability, T/C [20] of 90% and a viability, T/C [21] of 72.1%. It also gave a viability, T/C [22] of 68.4%, a viability, T/C [23] of 60.1% and a viability, T/C [24] of 33.5%. The viability, T/C [25] was 77.1%, the viability, T/C [26] was 66.5% and the viability, T/C [27] was 76%. The viability, T/C [28] was 76.6%, the viability, T/C [29] was 47.8% and the viability, T/C [30] was 24.2%. The viability, T/C [31] was 70.1%, the viability, T/C [32] was 71.9% and the viability, T/C [33] was 76.8%. For the same molecule, the viability, T/C [34] was 74.9%, the viability, T/C [35] was 59% and the viability, T/C [36] was 29.2%.

`CC1COCCN1c1cc(C2(S(C)(=N)=O)CC2)nc(-c2ccnc3[nH]ccc23)n1` (stereo unspecified) + CNC(=O)c1ccc(Nc2nc(OC3CCCC3)c3c(-c4ccc5nc(C)oc5c4)c[nH]c3n2)c(OC)c1 gave an IC50 (second compound 0.0316 µM) of 9.04 µM, an IC50 (second compound 0.1 µM) of 8.71 µM and an IC50 (second compound 0.316 µM) of 6.66 µM. It also gave an IC50 (second compound 1 µM) of 5.52 µM, an IC50 (second compound 3.16 µM) of 3.24 µM and an IC50 (second compound 10 µM) of 4.41 µM. The viability, T/C [1] was 90%, the viability, T/C [2] was 103% and the viability, T/C [3] was 77.8%. The viability, T/C [4] was 87.5%, the viability, T/C [5] was 89.7% and the viability, T/C [6] was 46.2%. For the same molecule, the viability, T/C [7] was 76.6%, the viability, T/C [8] was 76.9% and the viability, T/C [9] was 71.6%. For the same molecule, the viability, T/C [10] was 70.1%, the viability, T/C [11] was 70.5% and the viability, T/C [12] was 47.2%. The viability, T/C [13] was 81.3%, the viability, T/C [14] was 88.1% and the viability, T/C [15] was 74%. It also gave a viability, T/C [16] of 76.6%, a viability, T/C [17] of 68% and a viability, T/C [18] of 40.3%. It also gave a viability, T/C [19] of 86.4%, a viability, T/C [20] of 59.8% and a viability, T/C [21] of 61.8%. The viability, T/C [22] was 74.1%, the viability, T/C [23] was 61.7% and the viability, T/C [24] was 36.8%. The viability, T/C [25] was 72.8%, the viability, T/C [26] was 77.6% and the viability, T/C [27] was 82.5%. For the same molecule, the viability, T/C [28] was 70.3%, the viability, T/C [29] was 50.8% and the viability, T/C [30] was 30.5%. It also gave a viability, T/C [31] of 69.5%, a viability, T/C [32] of 69.3% and a viability, T/C [33] of 69.2%. It also gave a viability, T/C [34] of 63.8%, a viability, T/C [35] of 59.6% and a viability, T/C [36] of 29%.
